# Article PMC3441040 (ACS Medicinal Chemistry Letters, 2012)
# Assays:
# purified murine COX-2 = molecular target: T1, purified murine COX-2 (Mus musculus, UniProt Q05769); assay: Inhibition of mCOX-2 dependent oxygenation of 2-AG and AA in vitro; format: biochemical; settings: read-out: 2-AG IC50 (dash)
# T1 sequence (Q05769 18-604): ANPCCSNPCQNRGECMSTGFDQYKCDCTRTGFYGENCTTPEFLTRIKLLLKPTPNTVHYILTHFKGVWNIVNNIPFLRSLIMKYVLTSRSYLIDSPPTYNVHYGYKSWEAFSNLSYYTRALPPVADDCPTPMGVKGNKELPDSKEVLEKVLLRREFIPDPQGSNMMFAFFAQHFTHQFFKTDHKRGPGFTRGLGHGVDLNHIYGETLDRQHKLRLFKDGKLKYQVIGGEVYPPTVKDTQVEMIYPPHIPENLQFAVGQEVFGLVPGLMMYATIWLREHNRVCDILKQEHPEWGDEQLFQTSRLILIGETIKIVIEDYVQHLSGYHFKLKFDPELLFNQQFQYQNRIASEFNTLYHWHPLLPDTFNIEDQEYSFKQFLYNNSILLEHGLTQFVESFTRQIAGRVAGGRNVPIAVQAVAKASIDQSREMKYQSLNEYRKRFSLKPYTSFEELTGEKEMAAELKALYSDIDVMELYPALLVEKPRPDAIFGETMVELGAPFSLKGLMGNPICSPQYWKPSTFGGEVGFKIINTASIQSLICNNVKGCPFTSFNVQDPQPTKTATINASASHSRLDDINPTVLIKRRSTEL
# [1] = system: COX-2 dependent oxygenation in RAW 264.7 macrophages; assay: Oxygenation of 2-AG and AA in LPS/interferon γ stimulated RAW 264.7 macrophages; format: cell-based; settings: Mus musculus, RAW264.7, read-out: AA inhibition in RAW 264.7 cells
inhibition at 10 µM (purified murine COX-2) [%],SMILES,inhibition at 50 µM [1] [%]
< 50,COc1ccc2cc(C(C)(C)C(=O)O)ccc2c1 [4b],
,"C[C@@H](C(=O)O)c1ccc(-c2ccccc2)c(F)c1 [7a, (R)-flurbiprofen]",0
< 50,CC(C)Cc1ccc(C(C)(C)C(=O)O)cc1 [4c],
< 50,CC(C)Cc1ccc(C2(C(=O)O)CC2)cc1 [5c],
